Patent publication EP0209274A2, “Furanone derivatives” (ELI LILLY AND COMPANY, priority 1985, dated 1987)

Key:
[1] = molecular target: Pancreatic phospholipase A2 (Homo sapiens, UniProt P04054); assay: Phospholipase A2 (PLA2) Assay; assay type: biochemical; details: 30 µg/ml test compound; inhibition of 14C-free fatty acid formation
Protocol: The assay buffer contained 10 mM Tris-HCl buffer, pH 8.0, 100 mM NaCl, 1 mM CaCl2 and 1 mg/ml of bovine serum albumin. A toluene-ethanol (1:1 v/v) solution of phosphatidiylcholine, L-a-dipalmitoyl-(2-palmitoyl-1-^14C) obtained from New England Nuclear was evaporated to dryness in a flask under nitrogen and the assay buffer was added to give a substrate concentration of 9.0 x 10^-5M (specific activity = 27.7 mCi/mmol). The mixture was sonicated for 5 minutes in a Bransonic 220 Sonication Bath. Pancreatic phospholipase A2 (specific activity = 600 units/mg) was diluted with the assay buffer to give an enzyme concentration of 0.1 mg/ml. […] To initiate the enzyme reaction, 0.1 ml of the mixture containing the substrate was added to the enzyme solution and the reaction mixture was further incubated for 30 minutes at 37°C. The reaction was then terminated by the addition of 20 µl of 1M citric acid.
Fifty µl of the mixture was added to 10 ml of scintillation fluid [5.88 g of 2,5-diphenyl-oxazole and 118 mg of 1,4-bis(5-phenyloxazol-2-yl)benzene] dissolved in 650 ml of toluene and 350 ml of Triton X-100) and the radioactivity was determined in an Isocap/300 liquid scintillation counter (Searle Analytic Inc., Southfield, Michigan). Another 50 µl of the mixture was applied directly onto the spotting area of a silica gel plate (LK6D, Whatman, Clifton, N.J.) and subjected to thin layer chromatography in a solvent system of ethyl acetate:acetic acid:2,2,4-trimethylpentane:H20 (90:20:50:100, v/v/v). The silica gel on the plate was scraped in 1 cm sections, suspended in 5 ml of the Triton X-100 based scintillation fluid and the radioactivity was determined. Phosphatidylcholine remained at the origin while fatty acids migrated to a few centimeters (2-3 cm) below the solvent front. The percent of ^14C-free fatty acid formed with the test compound added was calculated as compared to the amount formed in control experiments where no test compound was added. […]

[2] = molecular target: T1, fatty acid cyclooxygenase (Homo sapiens, UniProt P23219); assay: Fatty Acid Cyclooxygenase (FCO) Assay; assay type: biochemical; details: 30 µg/ml test compound; inhibition of formation of PGE2; enzyme from human platelets
T1 construct: Microsomes were prepared from 185 bags of human platelets; from tissue; host or cells: human platelets (solubilized microsomes, then electrofocusing and Sephadex G-200)
T1 sequence (P23219 24-599): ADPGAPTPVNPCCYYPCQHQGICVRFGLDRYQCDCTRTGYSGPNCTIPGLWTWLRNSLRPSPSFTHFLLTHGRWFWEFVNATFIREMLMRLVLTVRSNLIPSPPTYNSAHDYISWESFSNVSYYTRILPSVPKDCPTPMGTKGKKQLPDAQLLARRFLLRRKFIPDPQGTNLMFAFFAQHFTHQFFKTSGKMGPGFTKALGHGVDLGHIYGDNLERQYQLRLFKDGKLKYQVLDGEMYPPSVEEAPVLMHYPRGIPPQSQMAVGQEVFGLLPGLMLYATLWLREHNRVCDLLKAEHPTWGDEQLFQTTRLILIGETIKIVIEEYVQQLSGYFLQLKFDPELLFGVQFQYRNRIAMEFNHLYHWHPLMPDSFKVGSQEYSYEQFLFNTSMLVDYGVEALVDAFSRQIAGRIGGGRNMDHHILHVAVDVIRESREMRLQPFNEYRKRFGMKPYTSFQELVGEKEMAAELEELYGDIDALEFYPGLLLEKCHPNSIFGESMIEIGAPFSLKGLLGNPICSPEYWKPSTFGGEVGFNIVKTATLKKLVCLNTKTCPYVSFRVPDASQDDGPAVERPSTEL
Protocol: Microsomes were prepared from 185 bags of human platelets (each bag containing the platelets from one pint of blood prepared using differential centrifugation procedures). The platelets from approximately 60 bags were prepared at one time. Platelet-rich plasma (500 g) was centrifuged at 10,000 x g for 20 minutes, and the platelet pellet was suspended in 100 ml of 0.1M. potassium phosphate buffer, pH 8.0, with a Teflon glass homogenizer and sonicated for 5.0 minutes with a Bronson Sonifier (Model 350) in a rosette flask cooled in ice water. Disrupted platelets were centrifuged 15 minutes at 10,000 x g. The supernatant was centrifuged at 100,000 x g for 90 minutes and the microsomal pellets were homogenized in 25 ml of 20% sucrose containing 1.0% Triton X-100 detergent. After 30 minutes at 4°C, the solubilized microsomes were centrifuged at 100,000 x g for 60 minutes. The yellow supernatant was removed and stored at -70°C.
The solubilized fatty acid cyclooxygenase was applied to a 440 ml electrofocusing column (LKB-8012) containing 1% phisolytes (Brinkman Instruments, Westburgh, NY), pH 2-11, with the cathode at the top of the column. The enzyme was layered onto the column at the appropriate time so that its sucrose concentration was equal to that of the column gradient. This was accomplished by checking the gradient concentration periodically with a sucrose hand refractometer. Electrofocusing was carried out for 16 hours with an initial voltage of 400 V and a final voltage of 900-1,000 volts. Fractions were collected (20 ml) and assayed for PGE2 formation. Active peak fractions were pooled and concentrated by ultrafiltration (XM 100A) to a volume of 3-5 ml.
Active fractions from electrofocusing were applied to a G-200 Sephadex column (2 cm x 46 cm) and eluted with 10 mM potassium phosphate buffer, pH 7.0, in 5 ml fractions. After assay, active fractions were pooled and concentrated to 1.0 ml by ultrafiltration (XM 100A), and kept frozen at -70°C.
Enzyme activity was determined by assaying for PGE2 formation by preincubating the enzyme with 10 mmol/l imidazole phosphate buffer, pH 8.0, 2 mmol/l epinephrine, 2 mmol/1 methemoglobin, and the test compound (30 pg/ml) in a total volume of 0.2 ml for one minute at 37°C. After preincubation, 5 mmol/1 ^14C-arachidonic acid were added and the mixture was incubated an additional 0.5 minutes at 37°C. The enzyme reaction was stopped by the addition of 20 µl of indomethacin (2 mg/ml) in alcohol.
The reaction mixture was spotted (50 pl) on a silica gel (LQ6D) plate and subjected to TLC. The solvent system consisted of chloroform-methanol-glacial acetic acid (90:5:5, v/v/v) and the relative mobilities were PGF2a = 0.235, and PGE2 = 0.47. The silica gel on the plate was scraped in 1 cm sections, suspended in 5 ml of the scintillation fluid [5.88 g of 2,5-diphenyl-oxazole and 118 mg of 1,4-bis(5-phenyloxazol-2-yl)benzene] dissolved in 650 ml of toluene and 350 ml of Triton X-100) and the radioactivity was determined in an Isocap/300 liquid scintillation counter (Searle Analytic, Inc., Southfield, MI). Another 50 µl of the mixture was added to 10 ml of the Triton X-100 based scintillation fluid, and the radioactivity was determined so that the amount of radioactivity recovery from the TLC plate could be ascertained. PGE2 formation for each test compound was determined as a percent of control experiments wherein no test compound was added. Data is expressed in Table I as the percent inhibition of formation of PGE2 at a test compound concentration of 30 pg/ml.

Chain of Pancreatic phospholipase A2 (P04054 23-148): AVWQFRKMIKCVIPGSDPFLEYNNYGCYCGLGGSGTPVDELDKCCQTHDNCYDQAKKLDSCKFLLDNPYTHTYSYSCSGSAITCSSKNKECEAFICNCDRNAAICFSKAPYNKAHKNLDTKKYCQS

| inhibition at 30 µg/mL [1] | inhibition at 30 µg/mL [2] | SMILES |
| --- | --- | --- |
| 51% | 61% | CCCCCCCC/C=C\CCCCCCC1=CC(=O)OC1O (centres unmarked) [Example 11, (Z)-4-(7-hexadecenyl)-5-hydroxy-2(5H)-furanone] |
| 72% | < 5% | CC(C)=CCC/C(C)=C/CCC1=CC(=O)OC1O (centres unmarked) [Example 14, (E,E)-4-(4,8-dimethyl-3,7-nonadienyl)-5-hydroxy-2(5H)-furanone] |
| 44% | 20% | O=C1C=C(CCCCCOc2ccccc2Cc2ccccc2)C(O)O1 (centres unmarked) [Example 18, 5-Hydroxy-4-[5-(2-benzylphenoxy)pentyl]-2(5H)-furanone] |
| 0% | 46% | CC/C=C\C/C=C\C/C=C\C/C=C\C/C=C\C/C=C\CC1=CC(=O)OC1O (centres unmarked) [Example 9, (Z,Z,Z,Z,Z,Z)-4-(2,5,8,11,14,17-eicosa-hexaenyl)-5-hydroxy-2(5H)-furanone] |
| 76% | 14% | CC(C)=CCCC(C)=CCCC(=CCCC1=CC(=O)OC1O)CO (centres unmarked) [Example 19, 5-Hydroxy-4-[4-(hydroxymethyl)-8,12-dimethyl-3,7,11-tridecatrienyl]-2(5H)-furanone] |
| 41% | 67% | CCCCC/C=C\C/C=C\C/C=C\C/C=C\CCC1=CC(=O)OC1O (centres unmarked) [Example 3, (Z,Z,Z,Z)-5-hydroxy-4-(3,6,9,12-octa-decatetraenyl)-2(5H)-furanone] |
| 88% | 32% | CC(C)=CCCC(C)=CCCC(C=O)=CCCC1=CC(=O)OC1O (centres unmarked) [Example 15, 2-[3-(2,5-dihydro-2-hydroxy-5-oxo-3-furanyl)-propylidene]-6,10-dimethyl-5,9-undecadienal] |
| 50% | 47% | CC(C)=CCCC(C)=CCCC(C)=CCCC1=CC(=O)OC1O (centres unmarked) [Example 13, 5-Hydroxy-4-(4,8,12-trimethyl-3,7,11-tri-decatrienyl)-2(5H)-furanone] |
| 77% | 77% | CCCCC/C=C\C/C=C\CCCCCCC1=CC(=O)OC1O (centres unmarked) [Example 1, (Z,Z)-4-(7,10-hexadecadienyl)-5-hydroxy-2-(5H)-furanone] |
| 77% | 75% | CCCCC/C=C\C/C=C\C/C=C\CCCC1=CC(=O)OC1O (centres unmarked) [Example 5, (Z,Z,Z)-4-(4,7,10-hexadecatrienyl)-5-hydroxy-2(5H)-furanone] |
| 0% | 52% | CCCCCCCC/C=C/CCCCCCC1=CC(=O)OC1O (centres unmarked) [Example 4, (E)-4-(7-hexadecenyl)-5-hydroxy-2(5H)-furanone] |
| 72% | 16% | O=C1C=C(CCCCOc2ccc3ccccc3c2)C(O)O1 (centres unmarked) [Example 12, 5-Hydroxy-4-[4-(2-naphthalenyloxy)butyl]-2(5H)-furanone] |
| 82% | 75% | CC/C=C\C/C=C\C/C=C\CCCCCCC1=CC(=O)OC1O (centres unmarked) [Example 2, (Z,Z,Z)-4-(7,10,13-hexadecatrienyl)-5-hydroxy-2(5H)-furanone] |
